From the NIST ThermoML archive (doi:10.1021/je0302304)
± gives the expanded uncertainty stated by the source.

Experiment: xn = mol fraction of the nth substance listed
Conditions: 101.32 kPa, Liquid

COCCOCCOCCOC [2,5,8,11-tetraoxadodecane] + CCO
mass density [kg/m3]
Conditions | 288.15 K | 298.15 K | 308.15 K | 318.15 K
x1 = 0.0045 | 796.7 ± 0.5 | 788.2 ± 0.5 | 779.5 ± 0.5 | 770.6 ± 0.5
x1 = 0.0085 | 799.3 ± 0.4 | 790.7 ± 0.5 | 782 ± 0.5 | 773.1 ± 0.5
x1 = 0.0125 | 801.7 ± 0.4 | 793.2 ± 0.5 | 784.4 ± 0.5 | 775.5 ± 0.5
x1 = 0.0165 | 804.2 ± 0.4 | 795.6 ± 0.5 | 786.8 ± 0.5 | 778 ± 0.5
x1 = 0.0205 | 806.6 ± 0.4 | 798 ± 0.4 | 789.2 ± 0.5 | 780.3 ± 0.5
x1 = 0.0305 | 812.4 ± 0.4 | 803.7 ± 0.4 | 794.9 ± 0.5 | 786 ± 0.5
x1 = 0.05 | 823 ± 0.4 | 814.2 ± 0.4 | 805.4 ± 0.4 | 796.4 ± 0.5
x1 = 0.1 | 846.7 ± 0.4 | 837.7 ± 0.4 | 828.8 ± 0.4 | 819.7 ± 0.4
x1 = 0.15 | 866.4 ± 0.3 | 857.3 ± 0.4 | 848.3 ± 0.4 | 839 ± 0.4
x1 = 0.2 | 882.9 ± 0.3 | 873.6 ± 0.3 | 864.5 ± 0.4 | 855.2 ± 0.4
x1 = 0.25 | 896.9 ± 0.3 | 887.7 ± 0.3 | 878.6 ± 0.3 | 869.2 ± 0.4
x1 = 0.3 | 909.2 ± 0.3 | 900 ± 0.3 | 890.7 ± 0.3 | 881.4 ± 0.3
x1 = 0.35 | 919.8 ± 0.3 | 910.5 ± 0.3 | 901.3 ± 0.3 | 891.9 ± 0.3
x1 = 0.4 | 929.2 ± 0.3 | 919.8 ± 0.3 | 910.5 ± 0.3 | 901.1 ± 0.3
x1 = 0.4499 | 937.4 ± 0.3 | 928 ± 0.3 | 918.6 ± 0.3 | 909.2 ± 0.3
x1 = 0.5 | 944.8 ± 0.3 | 935.3 ± 0.3 | 925.9 ± 0.3 | 916.4 ± 0.3
x1 = 0.55 | 951.4 ± 0.3 | 941.9 ± 0.3 | 932.4 ± 0.3 | 922.9 ± 0.3
x1 = 0.6 | 957.3 ± 0.3 | 947.7 ± 0.3 | 938.3 ± 0.3 | 928.8 ± 0.3
x1 = 0.65 | 962.7 ± 0.3 | 953.1 ± 0.3 | 943.7 ± 0.3 | 934.2 ± 0.3
x1 = 0.7 | 967.5 ± 0.3 | 958 ± 0.3 | 948.6 ± 0.3 | 939 ± 0.3
x1 = 0.75 | 972 ± 0.3 | 962.4 ± 0.3 | 953 ± 0.3 | 943.5 ± 0.3
x1 = 0.7999 | 976.1 ± 0.3 | 966.5 ± 0.3 | 957.1 ± 0.3 | 947.5 ± 0.4
x1 = 0.8499 | 979.9 ± 0.4 | 970.3 ± 0.4 | 960.8 ± 0.4 | 951.3 ± 0.4
x1 = 0.8998 | 983.4 ± 0.4 | 973.8 ± 0.4 | 964.3 ± 0.4 | 954.8 ± 0.4
x1 = 0.9498 | 986.7 ± 0.4 | 977.1 ± 0.4 | 967.6 ± 0.4 | 958.1 ± 0.4
x1 = 1 | 989.7 ± 0.4 | 980.1 ± 0.4 | 970.7 ± 0.4 | 961.1 ± 0.4

COCCOCCOC [2,5,8-trioxanonane] + CCO
mass density [kg/m3]
Conditions | 288.15 K | 298.15 K | 308.15 K | 318.15 K
x1 = 0.0045 | 795.6 ± 0.5 | 787 ± 0.5 | 778.4 ± 0.5 | 769.6 ± 0.5
x1 = 0.0085 | 797.1 ± 0.4 | 788.6 ± 0.5 | 779.9 ± 0.5 | 771.1 ± 0.5
x1 = 0.0125 | 798.7 ± 0.4 | 790.1 ± 0.5 | 781.5 ± 0.5 | 772.6 ± 0.5
x1 = 0.0165 | 800.3 ± 0.4 | 791.7 ± 0.5 | 783 ± 0.5 | 774.1 ± 0.5
x1 = 0.0205 | 801.8 ± 0.4 | 793.2 ± 0.5 | 784.4 ± 0.5 | 775.6 ± 0.5
x1 = 0.0305 | 805.5 ± 0.4 | 796.9 ± 0.4 | 788.1 ± 0.5 | 779.2 ± 0.5
x1 = 0.05 | 812.6 ± 0.4 | 803.8 ± 0.4 | 795 ± 0.5 | 786 ± 0.5
x1 = 0.1 | 828.7 ± 0.4 | 819.7 ± 0.4 | 810.7 ± 0.4 | 801.5 ± 0.4
x1 = 0.15 | 842.6 ± 0.4 | 833.6 ± 0.4 | 824.5 ± 0.4 | 815.1 ± 0.4
x1 = 0.2 | 855 ± 0.4 | 845.8 ± 0.4 | 836.5 ± 0.4 | 827.1 ± 0.4
x1 = 0.25 | 865.9 ± 0.3 | 856.6 ± 0.4 | 847.3 ± 0.4 | 837.8 ± 0.4
x1 = 0.3 | 875.7 ± 0.3 | 866.3 ± 0.3 | 856.9 ± 0.4 | 847.3 ± 0.4
x1 = 0.35 | 884.5 ± 0.3 | 875 ± 0.3 | 865.5 ± 0.4 | 855.8 ± 0.4
x1 = 0.4 | 892.4 ± 0.3 | 882.9 ± 0.3 | 873.2 ± 0.3 | 863.5 ± 0.4
x1 = 0.45 | 899.6 ± 0.3 | 889.9 ± 0.3 | 880.2 ± 0.3 | 870.5 ± 0.3
x1 = 0.4999 | 906 ± 0.3 | 896.4 ± 0.3 | 886.7 ± 0.3 | 876.8 ± 0.3
x1 = 0.55 | 912 ± 0.3 | 902.3 ± 0.3 | 892.5 ± 0.3 | 882.6 ± 0.3
x1 = 0.5999 | 917.4 ± 0.3 | 907.7 ± 0.3 | 897.8 ± 0.3 | 887.9 ± 0.3
x1 = 0.65 | 922.5 ± 0.3 | 912.6 ± 0.3 | 902.8 ± 0.3 | 892.8 ± 0.3
x1 = 0.6999 | 927.1 ± 0.3 | 917.2 ± 0.3 | 907.3 ± 0.3 | 897.3 ± 0.3
x1 = 0.7499 | 931.3 ± 0.3 | 921.4 ± 0.3 | 911.5 ± 0.3 | 901.5 ± 0.3
x1 = 0.7999 | 935.3 ± 0.3 | 925.4 ± 0.3 | 915.4 ± 0.3 | 905.4 ± 0.3
x1 = 0.8499 | 939 ± 0.3 | 929 ± 0.3 | 919.1 ± 0.3 | 909 ± 0.3
x1 = 0.8998 | 942.4 ± 0.3 | 932.4 ± 0.3 | 922.5 ± 0.3 | 912.5 ± 0.3
x1 = 0.9498 | 945.7 ± 0.3 | 935.7 ± 0.3 | 925.7 ± 0.3 | 915.7 ± 0.3
x1 = 1 | 948.6 ± 0.3 | 938.7 ± 0.3 | 928.7 ± 0.3 | 918.6 ± 0.3
